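Briefly, cells in 96-well plates were exposed to five compound concentrations for 48 h, and endpoints were estimated by linear interpolation. GI50 marks 50% less growth.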 The source made the active and inactive calls. Rule as the data show it: active = GI50 up to about 1.1 µM and inactive = higher.
Legend:
Assay in all cases: inhibition of tumour cell growth, NCI panel, 48 h
UO-31 = test system: UO-31
Malme-3M = test system: Malme-3M
Hs-578T = test system: Hs-578T
UACC-62 = test system: UACC-62
TK-10 = test system: TK-10
UACC-257 = test system: UACC-257
OVCAR-3 = test system: OVCAR-3
A549 = test system: A549
HCT-15 = test system: HCT-15
NCI-H460 = test system: NCI-H460
HOP-92 = test system: HOP-92
U-251 = test system: U-251
SNB-19 = test system: SNB-19
OVCAR-5 = test system: OVCAR-5
DU-145 = test system: DU-145
MDA-MB-435 = test system: MDA-MB-435
SF-295 = test system: SF-295
NCI-H226 = test system: NCI-H226
KM12 = test system: KM12
BT-549 = test system: BT-549
NCI-H23 = test system: NCI-H23
HT-29 = test system: HT-29
NCI-H522 = test system: NCI-H522
CAKI-1 = test system: CAKI-1
NCI/ADR-RES = test system: NCI/ADR-RES
ACHN = test system: ACHN
LOX IMVI = test system: LOX IMVI
OVCAR-8 = test system: OVCAR-8
SW-620 = test system: SW-620
PC-3 = test system: PC-3
M14 = test system: M14
MDA-MB-231 = test system: MDA-MB-231
HOP-62 = test system: HOP-62
SK-MEL-2 = test system: SK-MEL-2
MOLT-4 = test system: MOLT-4
HCC 2998 = test system: HCC 2998
SK-MEL-28 = test system: SK-MEL-28
A498 = test system: A498
EKVX = test system: EKVX
T47D = test system: T47D
K562 = test system: K562
RXF 393 = test system: RXF 393
IGROV-1 = test system: IGROV-1
SR = test system: SR
SF-268 = test system: SF-268
SK-MEL-5 = test system: SK-MEL-5
OVCAR-4 = test system: OVCAR-4
HL-60 = test system: HL-60
786-0 = test system: 786-0
RPMI-8226 = test system: RPMI-8226
COLO 205 = test system: COLO 205
MCF7 = test system: MCF7
SN12C = test system: SN12C
HCT-116 = test system: HCT-116
SNB-75 = test system: SNB-75
SF-539 = test system: SF-539
CCRF-CEM = test system: CCRF-CEM
MDA-N = test system: MDA-N
SK-OV-3 = test system: SK-OV-3

Measured: GI50

O=[N+]([O-])c1ccc(Nc2nc3ccccc3s2)cc1
inactive: UO-31 18.5 µM | Malme-3M 15.9 µM | Hs-578T 29.9 µM | UACC-62 20.2 µM | TK-10 33.7 µM | UACC-257 25.8 µM | OVCAR-3 18.7 µM | A549 47.6 µM | NCI-H460 29.4 µM | HOP-92 26.2 µM | U-251 17.3 µM | SNB-19 38.5 µM | OVCAR-5 23 µM | DU-145 69.8 µM | MDA-MB-435 37.9 µM | SF-295 37.6 µM | NCI-H226 63 µM | KM12 51.6 µM | BT-549 27.2 µM | NCI-H23 16 µM | HT-29 34.6 µM | NCI-H522 14.4 µM | CAKI-1 > 100 µM | NCI/ADR-RES 34.9 µM | ACHN 29.5 µM | LOX IMVI 14.9 µM | OVCAR-8 40.7 µM | SW-620 35 µM | PC-3 16.3 µM | M14 26.7 µM | MDA-MB-231 18 µM | HOP-62 29.2 µM | SK-MEL-2 25.5 µM | MOLT-4 8.36 µM | HCC 2998 25.2 µM | SK-MEL-28 46.2 µM | A498 30.4 µM | EKVX 18.7 µM | T47D 3.03 µM | K562 12.2 µM | RXF 393 14.7 µM | IGROV-1 3.94 µM | SR 10.7 µM | SF-268 26.3 µM | SK-MEL-5 21.6 µM | OVCAR-4 43.2 µM
28.8 µM: HCT-15

S=C(NCc1ccccn1)N/N=C/c1ccccn1
active: UO-31 < 0.0331 µM | Malme-3M 0.614 µM | UACC-62 < 0.0181 µM | TK-10 0.0195 µM | UACC-257 < 0.01 µM | OVCAR-3 < 0.01 µM | A549 < 0.0188 µM | NCI-H460 0.0556 µM | HL-60 < 0.01 µM | 786-0 < 0.01 µM | HOP-92 < 0.0206 µM | SNB-19 0.726 µM | OVCAR-5 < 0.01 µM | DU-145 0.268 µM | MDA-MB-435 0.207 µM | RPMI-8226 < 0.01 µM | SF-295 0.0482 µM | NCI-H226 < 0.0168 µM | KM12 < 0.01 µM | COLO 205 < 0.01 µM | NCI-H23 < 0.01 µM | NCI-H522 < 0.01 µM | CAKI-1 < 0.01 µM | NCI/ADR-RES < 0.01 µM | MCF7 < 0.01 µM | ACHN < 0.01 µM | SN12C 0.0724 µM | LOX IMVI < 0.0167 µM | OVCAR-8 < 0.032 µM | SW-620 < 0.01 µM | PC-3 < 0.01 µM | HCT-116 < 0.01 µM | M14 < 0.01 µM | SF-539 < 0.0159 µM | MDA-MB-231 < 0.01 µM | CCRF-CEM < 0.01 µM | HOP-62 < 0.01 µM | SK-MEL-2 0.0234 µM | MOLT-4 < 0.01 µM | MDA-N 0.454 µM | HCC 2998 0.229 µM | SK-MEL-28 0.518 µM | A498 < 0.0113 µM | EKVX < 0.0194 µM | T47D < 0.01 µM | K562 < 0.01 µM | RXF 393 < 0.0378 µM | IGROV-1 < 0.01 µM | SR < 0.01 µM | SF-268 0.0214 µM | SK-MEL-5 0.0184 µM | OVCAR-4 < 0.0371 µM
< 0.01 µM: HCT-15
inactive: Hs-578T 1.14 µM | SNB-75 3.05 µM

CCCCCCCCCCCCC/C=C/[C@H]1[C@@H](C(=O)OC)N1[S+]([O-])c1ccc(C)cc1 (stereo not given in full)
inactive: UO-31 > 100 µM | Malme-3M > 100 µM | UACC-62 > 100 µM | TK-10 > 100 µM | UACC-257 36.3 µM | OVCAR-3 > 100 µM | HL-60 21.2 µM | 786-0 > 100 µM | HOP-92 > 100 µM | U-251 > 100 µM | DU-145 > 100 µM | MDA-MB-435 > 100 µM | RPMI-8226 12.1 µM | BT-549 > 100 µM | COLO 205 > 100 µM | NCI-H23 > 100 µM | NCI-H522 71.4 µM | ACHN > 100 µM | LOX IMVI > 100 µM | SW-620 > 100 µM | PC-3 > 100 µM | HCT-116 > 100 µM | CCRF-CEM 52.5 µM | HOP-62 > 100 µM | SK-MEL-2 > 100 µM | MOLT-4 87.5 µM | SK-MEL-28 > 100 µM | A498 > 100 µM | EKVX 88.3 µM | T47D 22.9 µM | K562 31.3 µM | IGROV-1 > 100 µM | SR 21.3 µM | SK-MEL-5 35.8 µM

O=c1c2cc(I)ccc2nc(-c2cccs2)n1Nc1ccccc1
inactive: OVCAR-3 1.16 µM | U-251 10.4 µM | SNB-19 23.5 µM | OVCAR-5 30.5 µM | RPMI-8226 4.61 µM | NCI-H226 14.1 µM | KM12 4.14 µM | BT-549 3.14 µM | COLO 205 1.64 µM | NCI-H23 19.9 µM | HT-29 3.21 µM | CAKI-1 11 µM | NCI/ADR-RES 22.3 µM | SN12C 46.8 µM | OVCAR-8 2.08 µM | SW-620 2.72 µM | PC-3 1.61 µM | HCT-116 12.2 µM | M14 1.5 µM | SF-539 33.5 µM | HOP-62 18.8 µM | SK-OV-3 13.9 µM | MOLT-4 8.17 µM | HCC 2998 16 µM | SK-MEL-28 17.9 µM | EKVX 13.5 µM | RXF 393 39.3 µM | IGROV-1 1.39 µM | SR 12.1 µM | SF-268 14.1 µM | SK-MEL-5 6.79 µM | OVCAR-4 3.06 µM
5.78 µM: HCT-15
active: UO-31 0.889 µM | UACC-62 0.719 µM | A549 1.06 µM | NCI-H460 0.458 µM | HL-60 0.416 µM | MDA-MB-435 0.649 µM | SF-295 0.383 µM | NCI-H522 0.849 µM | ACHN 0.675 µM | LOX IMVI 0.117 µM | SK-MEL-2 0.33 µM

Source: ChEMBL document CHEMBL1201862, “PubChem BioAssay data set” (2004)
